Here are results for 19 compounds from the SangsterLogP compilation.

One data set can be described thus: method code SF-AS, from DOI: 10.1007/s11095-005-4582-3, PMID: 15948031.
For orientation: logP means a log measure of how a compound divides between an organic and an aqueous phase. On to `O=Cc1ssc(=S)c1Cl`, for which the logP came out at 2.95.
Same read-out and setting: for `CCc1c(C=O)ssc1=S` the value was 3.15; for `O=Cc1ssc(=S)c1-c1ccccc1`, 3.43.
For `O=Cc1ssc(=O)c1Cl`, the logP worked out at 2.16.
On the same count and under the same terms, for `CCc1c(C=O)ssc1=O` the value was 2.58; for `COc1c(C=O)ssc1=S`, 2.56.
Still for that read-out and setting: for `Cc1c(C=O)ssc1=O` the value was 1.62.

Test in a further data set: not given
On to `CCc1c(C(C)=O)ssc1=S`, for which the logP came to 3.21.
Same read-out and setting: for `COc1c(C=O)ssc1=O` the value was 1.83; for `CC(=O)c1cc(=S)ss1`, 2.18; for `O=Cc1cc(=S)ss1`, 2.53.
On the same count and under the same terms, next, `CCc1c(C(C)=O)ssc1=O`: 2.12; `O=Cc1cc(=O)ss1`: 1.81.
The same measure, in the same setting: for `CC(=O)c1ssc(=S)c1-c1ccccc1` the value was 3.31; for `O=Cc1ssc(=O)c1-c1ccccc1`, 2.94.
For the compound `CC(=O)c1cc(=O)ss1`, the logP turned out to be 1.14.
On the same count and under the same terms, for `CC(=O)c1ssc(=O)c1-c1ccccc1` the value was 2.5; for `CC(=O)c1ssc(=O)c1C`, 1.58; for `Cc1c(C=O)ssc1=S`, 2.87.
